Measurements as given in ChEMBL document CHEMBL3822404, “Design, synthesis and biological evaluation of novel 3-alkylsulfanyl-4-amino-1,2,4-triazole derivatives” (Bioorg Med Chem Lett, 2016).

Legend:
[1] = Antiproliferative activity against human PC3 cells measured after 48 hrs by MTT assay; type: functional, cell-based; details: PC-3, 48 h
HeLa [2] = experiment: Antiproliferative activity against human HeLa cells measured after 48 hrs by MTT assay; type: functional, cell-based
[3] = Antiproliferative activity against human HCT116 cells measured after 48 hrs by MTT assay; type: functional, cell-based; details: HCT-116, 48 h
HepG2 = experiment: Antiproliferative activity against human HepG2 cells measured after 48 hrs by MTT assay; type: functional, cell-based; details: HepG2, 48 h
HEK293 = experiment: Cytotoxicity against HEK293 cells measured after 48 hrs by MTT assay; type: cell-based; details: Homo sapiens, HEK293, 48 h
HeLa [4] = experiment: Induction of cell cycle arrest in human HeLa cells assessed as accumulation at G0/G1 phase at 2 uM measured after 12 to 18 hrs by […] cell sorting analysis (reference value: 64.31%); type: functional
HeLa [5] = experiment: Induction of cell cycle arrest in human HeLa cells assessed as accumulation at G0/G1 phase at 8 uM measured after 12 to 18 hrs by […] cell sorting analysis (reference value: 64.31%); type: functional
HeLa [6] = experiment: Induction of cell cycle arrest in human HeLa cells assessed as accumulation at G2/M phase at 4 uM measured after 12 to 18 hrs by […] cell sorting analysis (reference value: 16.67%); type: functional
HeLa [7] = experiment: Induction of cell cycle arrest in human HeLa cells assessed as accumulation at G2/M phase at 2 uM measured after 12 to 18 hrs by […] cell sorting analysis (reference value: 16.67%); type: functional
HeLa [8] = experiment: Induction of cell cycle arrest in human HeLa cells assessed as accumulation at G2/M phase measured after 18 hrs by […] cell sorting analysis; type: functional, cell-based
HeLa [9] = experiment: Induction of cell cycle arrest in human HeLa cells assessed as accumulation at S phase at 8 uM measured after 12 to 18 hrs by […] cell sorting analysis (reference value: 19.02%); type: functional
HeLa [10] = experiment: Induction of cell cycle arrest in human HeLa cells assessed as accumulation at S phase at 2 uM measured after 12 to 18 hrs by […] cell sorting analysis (reference value: 19.02%); type: functional
HeLa [11] = experiment: Induction of cell cycle arrest in human HeLa cells assessed as accumulation at G0/G1 phase at 4 uM measured after 12 to 18 hrs by […] cell sorting analysis (reference value: 64.31%); type: functional
HeLa [12] = experiment: Induction of cell cycle arrest in human HeLa cells assessed as accumulation at S phase at 4 uM measured after 12 to 18 hrs by […] cell sorting analysis (reference value: 19.02%); type: functional
HeLa [13] = experiment: Induction of cell cycle arrest in human HeLa cells assessed as accumulation at G2/M phase at 8 uM measured after 12 to 18 hrs by […] cell sorting analysis (reference value: 16.67%); type: functional

SMILES: COc1cc(-c2nnc(SCC(=O)c3ccc(Cl)cc3)n2N)cc(OC)c1OC
- IC50 [1]: > 100 µM
- IC50 (HeLa [2]): 13.1 µM
- IC50 [3]: 7.5 µM
- IC50 (HepG2): > 100 µM

SMILES: COc1cc(-c2nnc(SCC(=O)c3ccc(Br)cc3)n2N)cc(OC)c1OC
- IC50 [1]: > 100 µM
- IC50 (HeLa [2]): 10.4 µM
- IC50 [3]: 9.23 µM
- IC50 (HepG2): 92.5 µM

SMILES: COc1cc(-c2nnc(SCC(=O)NCCc3ccc(C)cc3)n2N)cc(OC)c1OC
- IC50 [1]: 41.3 µM
- IC50 (HeLa [2]): > 100 µM
- IC50 [3]: > 100 µM
- IC50 (HepG2): > 100 µM

SMILES: O=c1[nH]cc(F)c(=O)[nH]1 [FLUOROURACIL]
- IC50 [1]: 57 µM
- IC50 (HeLa [2]): 57.2 µM
- IC50 [3]: 68.7 µM

SMILES: COc1cc(-c2nnc(SCC(=O)c3cccc(Br)c3)n2N)cc(OC)c1OC
- IC50 [1]: > 100 µM
- IC50 (HeLa [2]): 77.5 µM
- IC50 [3]: 5.32 µM
- IC50 (HepG2): 56 µM

SMILES: COc1cc(-c2nnc(SCC(=O)c3ccccc3F)n2N)cc(OC)c1OC
- IC50 [1]: 43.1 µM
- IC50 (HeLa [2]): 80.1 µM
- IC50 [3]: 10.8 µM
- IC50 (HepG2): 22.6 µM

SMILES: COc1cc(-c2nnc(SCC(=O)NCCc3ccc(F)cc3)n2N)cc(OC)c1OC
- IC50 [1]: 56.1 µM
- IC50 (HeLa [2]): 66.5 µM
- IC50 [3]: > 100 µM
- IC50 (HepG2): > 100 µM

SMILES: COc1cccc(NC(=O)CSc2nnc(-c3cc(OC)c(OC)c(OC)c3)n2N)c1
- IC50 [1]: > 100 µM
- IC50 (HeLa [2]): 4.02 µM
- IC50 [3]: 0.68 µM
- IC50 (HEK293): 100 µM
- IC50 (HepG2): > 100 µM

SMILES: COc1cc(-c2nnc(SCC(=O)Nc3ccccc3C)n2N)cc(OC)c1OC
- IC50 [1]: > 100 µM
- IC50 (HeLa [2]): > 100 µM
- IC50 [3]: > 100 µM
- IC50 (HepG2): > 100 µM

SMILES: COc1cc(-c2nnc(SCC(=O)c3ccccc3)n2N)cc(OC)c1OC
- IC50 [1]: > 100 µM
- IC50 (HeLa [2]): > 100 µM
- IC50 [3]: 53 µM
- IC50 (HepG2): 7.8 µM

SMILES: COc1cc(-c2nnc(SCC(=O)c3ccc(F)cc3)n2N)cc(OC)c1OC
- IC50 [1]: > 100 µM
- IC50 (HeLa [2]): 20.9 µM
- IC50 [3]: 3.23 µM
- IC50 (HepG2): 90.4 µM

SMILES: COc1cc(-c2nnc(SCC(=O)c3ccc(F)c(F)c3)n2N)cc(OC)c1OC
- IC50 [1]: > 100 µM
- IC50 (HeLa [2]): > 100 µM
- IC50 [3]: 10.4 µM
- IC50 (HepG2): > 100 µM

SMILES: COc1cc(-c2nnc(SCC(=O)c3ccc(C)cc3)n2N)cc(OC)c1OC
- Activity (HeLa [4]): 53.39%
- Activity (HeLa [5]): 7.37%
- Activity (HeLa [6]): 70.18%
- Activity (HeLa [7]): 32.55%
- IC50 [1]: 31.3 µM
- IC50 (HeLa [2]): 2.94 µM
- IC50 [3]: 0.37 µM
- IC50 (HEK293): 100 µM
- Activity (HeLa [8]): Dose-dependent effect
- Activity (HeLa [9]): 13.81%
- Activity (HeLa [10]): 14.07%
- Activity (HeLa [11]): 12.41%
- IC50 (HepG2): > 100 µM
- Activity (HeLa [12]): 17.42%
- Activity (HeLa [13]): 78.81%

SMILES: COc1cc(NC(=O)CSc2nnc(-c3cc(OC)c(OC)c(OC)c3)n2N)cc(OC)c1OC
- IC50 [1]: > 100 µM
- IC50 (HeLa [2]): > 100 µM
- IC50 [3]: > 100 µM
- IC50 (HepG2): > 100 µM

SMILES: COc1ccc(C(=O)CSc2nnc(-c3cc(OC)c(OC)c(OC)c3)n2N)cc1
- IC50 [1]: 97.9 µM
- IC50 (HeLa [2]): 17.4 µM
- IC50 [3]: 1.24 µM
- IC50 (HEK293): 100 µM
- IC50 (HepG2): > 100 µM

SMILES: COc1cc(-c2nnc(SCC(=O)NCCc3ccc(Cl)cc3)n2N)cc(OC)c1OC
- IC50 [1]: > 100 µM
- IC50 (HeLa [2]): 79.9 µM
- IC50 [3]: 39.6 µM
- IC50 (HepG2): > 100 µM

SMILES: COc1cc(-c2nnc(SCC(=O)Nc3ccccc3F)n2N)cc(OC)c1OC
- IC50 [1]: 36.7 µM
- IC50 (HeLa [2]): 38.2 µM
- IC50 [3]: 1.16 µM
- IC50 (HEK293): > 100 µM
- IC50 (HepG2): 18.7 µM

SMILES: COc1ccc(CNC(=O)CSc2nnc(-c3cc(OC)c(OC)c(OC)c3)n2N)cc1OC
- IC50 [1]: > 100 µM
- IC50 (HeLa [2]): > 100 µM
- IC50 [3]: > 100 µM
- IC50 (HepG2): > 100 µM

SMILES: COc1cc(-c2nnc(SCC(=O)c3ccc(C(F)(F)F)cc3)n2N)cc(OC)c1OC
- IC50 [1]: > 100 µM
- IC50 (HeLa [2]): 3.38 µM
- IC50 [3]: 16.7 µM
- IC50 (HepG2): > 100 µM

SMILES: COc1cc(-c2nnc(SCC(=O)Nc3ccccc3)n2N)cc(OC)c1OC
- IC50 [1]: 37.9 µM
- IC50 (HeLa [2]): 8.28 µM
- IC50 [3]: 1.73 µM
- IC50 (HepG2): 49.9 µM

SMILES: COc1cc(-c2nnc(SCC(=O)NCc3ccc(Cl)cc3)n2N)cc(OC)c1OC
- IC50 [1]: > 100 µM
- IC50 (HeLa [2]): > 100 µM
- IC50 [3]: > 100 µM
- IC50 (HepG2): > 100 µM

SMILES: COc1cc(-c2nnc(SCC(=O)Nc3ccc(C)cc3)n2N)cc(OC)c1OC
- IC50 [1]: 43.1 µM
- IC50 (HeLa [2]): 4.77 µM
- IC50 [3]: 3.45 µM
- IC50 (HEK293): 79.4 µM
- IC50 (HepG2): > 100 µM

SMILES: COc1ccc(CCNC(=O)CSc2nnc(-c3cc(OC)c(OC)c(OC)c3)n2N)cc1
- IC50 [1]: 73.6 µM
- IC50 (HeLa [2]): > 100 µM
- IC50 [3]: > 100 µM
- IC50 (HepG2): > 100 µM

SMILES: COc1cc(-c2nnc(SCC(=O)NCc3ccc(C)cc3)n2N)cc(OC)c1OC
- IC50 [1]: 92.8 µM
- IC50 (HeLa [2]): > 100 µM
- IC50 [3]: > 100 µM
- IC50 (HepG2): > 100 µM

SMILES: COc1cc(-c2nnc(SCC(=O)NCCc3ccccc3)n2N)cc(OC)c1OC
- IC50 [1]: 80.5 µM
- IC50 (HeLa [2]): > 100 µM
- IC50 [3]: > 100 µM
- IC50 (HepG2): > 100 µM
